Laboratory results as given in US8497278B2, “Imidazo[1,2-a]pyridine compounds” (priority 2008, dated 2013).

Tests used:
[1] = tested on: central benzodiazepine receptors; assay: Central benzodiazepine receptor binding (test of Speth et al.); settings: 1000 nM of the compound
Procedure, shortened: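 Values are percent inhibition of central benzodiazepine receptor binding at 1000 nM compound (initial single-point screen at 1.0E-09, 1.0E-07 and 1.0E-05 M). Speth et al. binding test; nonspecific binding defined with excess unlabelled ligand and subtracted from total.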

[2] = biological target: T1, α5 subtype containing GABA-A receptors (Homo sapiens, UniProt P18507+P31644); assay: Two-electrode voltage clamp electrophysiology in Xenopus oocytes, potentiation of GABA EC20 response, α5; assay type: cell-based; settings: 100 nM compound, read-out: Percentage of potentiation alpha5
T1 construct: expressed in transfected cells; host or cells: Xenopus laevis oocytes, cRNA injected
Procedure, shortened: (§1)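 Oocyte TEVC at −80 mV, ND96 buffer pH 7.5; human αβ3γ2L receptors; enhancement of 60 μM GABA (EC20) current by 100 nM test compound.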

[3] = biological target: T2, α3 subtype containing GABA-A receptors (Homo sapiens, UniProt P18507+P34903); assay: Two-electrode voltage clamp electrophysiology in Xenopus oocytes, potentiation of GABA EC20 response, α3; assay type: cell-based; settings: 100 nM compound, read-out: Percentage of potentiation alpha3
T2 construct: expressed in transfected cells; host or cells: Xenopus laevis oocytes, cRNA injected
Procedure, shortened: as §1

T2 sequence (P34903 29-492): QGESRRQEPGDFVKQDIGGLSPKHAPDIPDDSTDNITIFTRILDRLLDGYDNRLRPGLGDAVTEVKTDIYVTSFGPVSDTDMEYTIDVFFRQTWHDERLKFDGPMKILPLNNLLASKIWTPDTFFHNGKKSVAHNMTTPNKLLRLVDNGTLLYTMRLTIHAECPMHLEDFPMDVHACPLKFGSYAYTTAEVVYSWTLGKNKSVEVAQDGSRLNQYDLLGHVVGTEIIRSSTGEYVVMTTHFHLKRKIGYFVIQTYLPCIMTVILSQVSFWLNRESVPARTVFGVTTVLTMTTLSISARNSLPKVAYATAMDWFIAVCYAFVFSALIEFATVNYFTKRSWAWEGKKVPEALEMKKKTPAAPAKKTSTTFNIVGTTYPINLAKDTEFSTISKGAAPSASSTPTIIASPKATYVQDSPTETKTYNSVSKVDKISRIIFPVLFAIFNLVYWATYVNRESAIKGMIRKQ
T2 sequence (P28472 26-473 partner): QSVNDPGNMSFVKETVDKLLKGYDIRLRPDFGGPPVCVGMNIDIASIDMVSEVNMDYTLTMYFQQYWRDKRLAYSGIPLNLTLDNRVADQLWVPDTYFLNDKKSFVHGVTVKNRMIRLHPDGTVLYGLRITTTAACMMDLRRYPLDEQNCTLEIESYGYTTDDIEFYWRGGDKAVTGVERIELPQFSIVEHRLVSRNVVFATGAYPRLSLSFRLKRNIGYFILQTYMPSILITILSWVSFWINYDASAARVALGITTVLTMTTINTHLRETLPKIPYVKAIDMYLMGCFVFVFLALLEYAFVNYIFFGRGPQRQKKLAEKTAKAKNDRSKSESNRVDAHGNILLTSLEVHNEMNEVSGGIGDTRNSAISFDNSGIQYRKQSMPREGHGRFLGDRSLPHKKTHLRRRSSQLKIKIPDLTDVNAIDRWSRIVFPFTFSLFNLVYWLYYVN
T2 sequence (P18507 40-475): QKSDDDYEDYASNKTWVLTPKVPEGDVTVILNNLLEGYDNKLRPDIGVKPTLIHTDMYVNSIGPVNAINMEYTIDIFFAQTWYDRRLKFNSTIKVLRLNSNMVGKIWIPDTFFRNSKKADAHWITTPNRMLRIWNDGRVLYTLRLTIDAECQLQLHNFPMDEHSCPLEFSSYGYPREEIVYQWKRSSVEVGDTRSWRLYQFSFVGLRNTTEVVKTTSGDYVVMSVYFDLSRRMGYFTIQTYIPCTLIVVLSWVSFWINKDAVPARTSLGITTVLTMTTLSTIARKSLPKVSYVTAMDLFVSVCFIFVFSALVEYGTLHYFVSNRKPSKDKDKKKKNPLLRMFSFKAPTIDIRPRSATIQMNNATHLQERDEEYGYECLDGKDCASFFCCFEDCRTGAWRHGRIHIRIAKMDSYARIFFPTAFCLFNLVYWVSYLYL
T1 sequence (P31644 32-462): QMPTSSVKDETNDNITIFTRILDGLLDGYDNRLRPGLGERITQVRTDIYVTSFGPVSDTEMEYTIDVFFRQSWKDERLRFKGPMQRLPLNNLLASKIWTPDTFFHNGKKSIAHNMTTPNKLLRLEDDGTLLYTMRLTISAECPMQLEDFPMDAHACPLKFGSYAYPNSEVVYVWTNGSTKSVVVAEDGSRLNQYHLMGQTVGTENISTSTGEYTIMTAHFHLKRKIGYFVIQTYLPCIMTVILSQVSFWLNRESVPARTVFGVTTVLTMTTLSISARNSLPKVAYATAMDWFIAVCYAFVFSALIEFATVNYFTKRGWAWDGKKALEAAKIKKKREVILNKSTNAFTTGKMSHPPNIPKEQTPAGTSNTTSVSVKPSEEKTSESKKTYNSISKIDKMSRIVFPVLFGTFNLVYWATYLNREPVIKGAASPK
T1 sequence (P28472 26-473 partner): as the sequence (P28472 26-473 partner) above
T1 sequence (P18507 40-475): as the sequence (P18507 40-475) above

SMILES | % Inhibition at 1000 nM for CBZD [1] | activation at 0.1 µM [2] [%] | activation at 0.1 µM [3] [%]
Cn1ncnc1Cc1c(-c2ccc(F)cc2)nc2ccc(F)cn12 [Compound 200, 6-fluoro-2-(4-fluorophenyl)-3-((1-methyl-1H-1,2,4-triazol-5-yl)methyl)imidazo[1,2-a]pyridine] | ++ (percentage of inhibition of central BZD site binding is greater than 80% in the presence of 1000 nM of the compound) | – | –
CNC(=O)c1nccn1Cc1c(-c2ccc(Cl)cc2)nc2ccccn12 [Compound 77, 1-((2-(4-chlorophenyl)H-imidazo[1,2-a]pyridin-3-yl)methyl)-N-methyl-1H-imidazole-2-carboxamide] | ++ (percentage of inhibition of central BZD site binding is greater than 80% in the presence of 1000 nM of the compound) | – | –
NC(=O)c1ncn(Cc2c(-c3ccc(Cl)cc3)nc3ccccn23)n1 [Compound 72, 1-((2-(4-chlorophenyl)imidazo[1,2-a]pyridin-3-yl)methyl)-1H-1,2,4-triazole-3-carboxamide] | ++ (percentage of inhibition of central BZD site binding is greater than 80% in the presence of 1000 nM of the compound) | -10 to 10 | 10 to 50
Clc1ccc(-c2nc3cccnn3c2Cn2cncn2)cc1 [Compound 32, 3-((1H-1,2,4-triazol-1-yl)methyl)-2-(4-chlorophenyl)imidazo[1,2-b]pyridazine] | ++ (percentage of inhibition of central BZD site binding is greater than 80% in the presence of 1000 nM of the compound) | – | –
